Values after ≈ are worked out from the molar mass of the structure shown. Structures can show the parent of a compound that is named as a salt.
Experiments:
P. aeruginosa 1091-05 [1] = experiment: Murine respiratory tract infection model against P. aeruginosa 1091-05 (PD50); assay type: in vivo; details: for RTI PD50 vs. Pa 1091-05 (95% confidence interval): immunosuppressed C3H/HeN mice, intranasal challenge, subcutaneous BID for two days from 4 h post-challenge, lethality over ten days; for Efficacy relative to Comparative Example A (PD50, 95% confidence intervals): murine respiratory tract infection model, P. aeruginosa 1091-05
Protocol: For this model, C3H/HeN mice were immunosuppressed with cyclophosphamide given orally at 150 mg/kg and 100 mg/kg on days −4 and −1 relative to challenge, respectively. Mice were anesthetized with isoflurane (5% in oxygen) and the bacterial inoculum was given to each mouse via intranasal instillation in a 40 μL volume (˜2.8×10^3 cfu per mouse). Mice were dosed with compound administered via subcutaneous injection beginning at four hours post-challenge, and continuing for two days of BID therapy.
PD50 is a measure of the ability of a compound to protect mice from a lethal infection.

[2] = system: Klebsiella pneumoniae 1000-02; experiment: In vitro MIC, Klebsiella pneumoniae 1000-02; assay type: cell-based; details: strain 1000-02, resistant to cephalosporins
Text: (§1) Culture collection strain 1045-06 is resistant to several classes of known antimicrobial agents including carbapenems, aminoglycosides and fluoroquinolones, while strains 1000-02 and 3167 are resistant to cephalosporins. Strain PA0200 is a derivative of laboratory strain PAO1 that lacks a functional MexAB-oprM efflux pump.

[3] = system: Acinetobacter baumanii 3167; experiment: In vitro MIC, Acinetobacter baumanii 3167; assay type: cell-based; details: strain 3167, resistant to cephalosporins
Text: as §1

P. aeruginosa 1091-05 [4] = experiment: In vitro MIC, P. aeruginosa 1091-05; assay type: cell-based; details: for MIC: Pseudomonas aeruginosa, 109105, read-out: Pa 1091-05 MIC
[5] = system: Pseudomonas aeruginosa 1045-06; experiment: In vitro MIC, Pseudomonas aeruginosa 1045-06; assay type: cell-based; details: strain 1045-06, resistant to carbapenems, aminoglycosides and fluoroquinolones
Text: as §1

[6] = system: Pseudomonas aeruginosa PA0200 MexAB-oprM KO; experiment: In vitro MIC, Pseudomonas aeruginosa PA0200 MexAB-oprM KO; assay type: cell-based; details: PAO1, read-out: MIC Pseudomonas aeruginosa PA0200 MexAB-oprM KO
Text: as §1

| Molecule | RTI PD50 vs. Pa 1091-05 (95% confidence interval) (P. aeruginosa 1091-05 [1]; disodium salt) | Efficacy relative to Comparative Example A (PD50, 95% confidence intervals) (P. aeruginosa 1091-05 [1]) | MIC Klebsiella pneumoniae 1000-02 [2] [µg/mL] | MIC Acinetobacter baumanii 3167 [3] [µg/mL] | Pa 1091-05 MIC (P. aeruginosa 1091-05 [4]) [µg/mL] | MIC Pseudomonas aeruginosa 1045-06 [5] [µg/mL] | MIC [6] [µg/mL] | RTI PD50 vs. Pa 1091-05 (95% confidence interval) (P. aeruginosa 1091-05 [1]) [mg/kg] | MIC (P. aeruginosa 1091-05 [4]) [µg/mL] |
| --- | --- | --- | --- | --- | --- | --- | --- | --- | --- |
| CC(C)(O/N=C(\C(=O)N[C@H]1CN(C(=O)NS(=O)(=O)n2nc(-c3cc(=O)c(O)c[nH]3)n(C[C@@H](O)CO)c2=O)C1=O)c1csc(N)n1)C(=O)[O-].CC(C)(O/N=C(\C(=O)N[C@H]1CN(C(=O)NS(=O)(=O)n2nc(-c3cc(=O)c(O)c[nH]3)n(C[C@@H](O)CO)c2=O)C1=O)c1csc(N)n1)C(=O)[O-].[Na+].[Na+] [Example 3, 2-({[(1Z)-1-(2-amino-1,3-thiazol-4-yl)-2-({(3S)-1-[({4-[(2R)-2,3-dihydroxypropyl]-3-(5-hydroxy-4-oxo-1,4-dihydropyridin-2-yl)-5-oxo-4,5-dihydro-1H-1,2,4-triazol-1-yl}sulfonyl)carbamoyl]-2-oxoazetidin-3-yl}amino)-2-oxoethylidene]amino}oxy)-2-methylpropanoic acid, disodium salt] | 20.6 (8.7-32.52) mg/kg | significantly more efficacious relative to Comparative Example A | 500 | 500 | 125 | 500 | – | – | – |
| CN(C)CCn1c(-c2cc(=O)c(O)c[nH]2)nn(S(=O)(=O)NC(=O)N2C[C@H](NC(=O)/C(=N\OC(C)(C)C(=O)O)c3csc(N)n3)C2=O)c1=O [Example 2, 2-({[(1Z)-1-(2-amino-1,3-thiazol-4-yl)-2-({(3S)-1-[({4-[2-(dimethylamino)ethyl]-3-(5-hydroxy-4-oxo-1,4-dihydropyridin-2-yl)-5-oxo-4,5-dihydro-1H-1,2,4-triazol-1-yl}sulfonyl)carbamoyl]-2-oxoazetidin-3-yl}amino)-2-oxoethylidene]amino}oxy)-2-methylpropanoic acid] | – | – | – | – | – | – | 188 (≈ 264 µM) | – | – |
| CO/N=C(\C(=O)N[C@@H]1C(=O)N2C(C(=O)[O-])=C(C[N+]3(C)CCCC3)CS[C@H]12)c1csc(N)n1 [Cefepime, reference compound] | – | – | – | – | – | – | – | 22 | 2000 (≈ 4160 µM) |
| CCCn1c(-c2cc(=O)c(O)c[nH]2)nn(S(=O)(=O)NC(=O)N2C[C@H](NC(=O)/C(=N\OC(C)(C)C(=O)O)c3csc(N)n3)C2=O)c1=O [Example 9, 2-({[(1Z)-1-(2-amino-1,3-thiazol-4-yl)-2-{[(3S)-1-({[3-(5-hydroxy-4-oxo-1,4-dihydropyridin-2-yl)-5-oxo-4-propyl-4,5-dihydro-1H-1,2,4-triazol-1-yl]sulfonyl}carbamoyl)-2-oxoazetidin-3-yl]amino}-2-oxoethylidene]amino}oxy)-2-methylpropanoic acid] | – | – | – | – | – | – | < 62.5 | – | – |
| CC(C)(O/N=C(\C(=O)N[C@H]1CN(C(=O)NS(=O)(=O)n2nc(-c3cc(=O)c(O)c[nH]3)n(C[C@H](O)CO)c2=O)C1=O)c1csc(N)n1)C(=O)[O-].CC(C)(O/N=C(\C(=O)N[C@H]1CN(C(=O)NS(=O)(=O)n2nc(-c3cc(=O)c(O)c[nH]3)n(C[C@H](O)CO)c2=O)C1=O)c1csc(N)n1)C(=O)[O-].[Na+].[Na+] [Example 5, 2-({[(1Z)-1-(2-amino-1,3-thiazol-4-yl)-2-({(3S)-1-[({4-[(2S)-2,3-dihydroxypropyl]-3-(5-hydroxy-4-oxo-1,4-dihydropyridin-2-yl)-5-oxo-4,5-dihydro-1H-1,2,4-triazol-1-yl}sulfonyl)carbamoyl]-2-oxoazetidin-3-yl}amino)-2-oxoethylidene]amino}oxy)-2-methylpropanoic acid, disodium salt] | 18.6 (8.94-28.29) mg/kg | significantly more efficacious relative to Comparative Example A | 500 | 500 | 125 | 250 | – | – | – |
| 2-({[(1Z)-2-{[(3S)-1-({[4-(2-amino-2-oxoethyl)-3-(5-hydroxy-4-oxo-1,4-dihydropyridin-2-yl)-5-oxo-4,5-dihydro-1H-1,2,4-triazol-1-yl]sulfonyl}carbamoyl)-2-oxoazetidin-3-yl]amino}-1-(2-amino-1,3-thiazol-4-yl)-2-oxoethylidene]amino}oxy)-2-methylpropanoic acid, disodium salt [Example 4] | 25.0 (24.8-25.2) mg/kg | significantly more efficacious relative to Comparative Example A | 1000 | 1000 | 125 | 500 | – | – | – |
| COCCn1c(-c2cc(=O)c(O)c[nH]2)nn(S(=O)(=O)NC(=O)N2C[C@H](NC(=O)/C(=N\OC(C)(C)C(=O)O)c3csc(N)n3)C2=O)c1=O [Example 15, 2-({[(1Z)-1-(2-amino-1,3-thiazol-4-yl)-2-{[(3S)-1-({[3-(5-hydroxy-4-oxo-1,4-dihydropyridin-2-yl)-4-(2-methoxyethyl)-5-oxo-4,5-dihydro-1H-1,2,4-triazol-1-yl]sulfonyl}carbamoyl)-2-oxoazetidin-3-yl]amino}-2-oxoethylidene]amino}oxy)-2-methylpropanoic acid, disodium salt] | – | – | – | – | – | – | – | >70.8 | 500 |
| CCn1c(-c2cc(=O)c(O)c[nH]2)nn(S(=O)(=O)NC(=O)N2C[C@H](NC(=O)C(=NOC(C)(C)C(=O)O)c3csc(N)n3)C2=O)c1=O (stereo in doubt) [Example 1, 2-({[(1E)-1-(2-amino-1,3-thiazol-4-yl)-2-{[(3S)-1-({[4-ethyl-3-(5-hydroxy-4-oxo-1,4-dihydropyridin-2-yl)-5-oxo-4,5-dihydro-1H-1,2,4-triazol-1-yl]sulfonyl}carbamoyl)-2-oxoazetidin-3-yl]amino}-2-oxoethylidene]amino}oxy)-2-methylpropanoic acid] | – | – | – | – | – | – | < 62.5 | – | – |
| C[C@H](O)Cn1c(-c2cc(=O)c(O)c[nH]2)nn(S(=O)(=O)NC(=O)N2C[C@H](NC(=O)/C(=N\OC(C)(C)C(=O)[O-])c3csc(N)n3)C2=O)c1=O.C[C@H](O)Cn1c(-c2cc(=O)c(O)c[nH]2)nn(S(=O)(=O)NC(=O)N2C[C@H](NC(=O)/C(=N\OC(C)(C)C(=O)[O-])c3csc(N)n3)C2=O)c1=O.[Na+].[Na+] [Example 7, 2-({[(1Z)-1-(2-amino-1,3-thiazol-4-yl)-2-({(3S)-1-[({3-(5-hydroxy-4-oxo-1,4-dihydropyridin-2-yl)-4-[(2S)-2-hydroxypropyl]-5-oxo-4,5-dihydro-1H-1,2,4-triazol-1-yl}sulfonyl)carbamoyl]-2-oxoazetidin-3-yl}amino)-2-oxoethylidene]amino}oxy)-2-methylpropanoic acid, disodium salt] | 15.7 (8.45-22.96) mg/kg | significantly more efficacious relative to Comparative Example A | 250 | 1000 | 125 | 250 | – | – | – |
| C[C@@H](O)[C@H]1C(=O)N2C(C(=O)O)=C(SCCN=CN)C[C@H]12 [Imipenem, reference compound] | – | – | – | – | – | – | – | 1.04 | 500 (≈ 1670 µM) |
| C[C@@H](O)Cn1c(-c2cc(=O)c(O)c[nH]2)nn(S(=O)(=O)NC(=O)N2C[C@H](NC(=O)/C(=N\OC(C)(C)C(=O)[O-])c3csc(N)n3)C2=O)c1=O.C[C@@H](O)Cn1c(-c2cc(=O)c(O)c[nH]2)nn(S(=O)(=O)NC(=O)N2C[C@H](NC(=O)/C(=N\OC(C)(C)C(=O)[O-])c3csc(N)n3)C2=O)c1=O.[Na+].[Na+] [Example 6] | 32.7 (23.7-42.0) mg/kg | significantly more efficacious relative to Comparative Example A | 500 | 1000 | 125 | 250 | – | – | – |
| CC(C)(O/N=C(\C(=O)N[C@H]1CN(C(=O)NS(=O)(=O)n2nc(-c3cc(=O)c(O)c[nH]3)n(CCN3CCCC3)c2=O)C1=O)c1csc(N)n1)C(=O)O [Example 11, 2-({[(1Z)-1-(2-amino-1,3-thiazol-4-yl)-2-{[(3S)-1-({[3-(5-hydroxy-4-oxo-1,4-dihydropyridin-2-yl)-5-oxo-4-(2-pyrrolidin-1-ylethyl)-4,5-dihydro-1H-1,2,4-triazol-1-yl]sulfonyl}carbamoyl)-2-oxoazetidin-3-yl]amino}-2-oxoethylidene]amino}oxy)-2-methylpropanoic acid] | – | – | – | – | – | – | 16000 (≈ 21700 µM) | – | – |
| CC(C)(O/N=C(\C(=O)N[C@H]1CN(C(=O)NS(=O)(=O)n2nc(-c3cc(=O)c(O)c[nH]3)n(CC(O)CO)c2=O)C1=O)c1csc(N)n1)C(=O)O (stereo partly drawn) [Example 10, 2-({[(1Z)-1-(2-amino-1,3-thiazol-4-yl)-2-{[(3S)-1-({[4-(2,3-dihydroxypropyl)-3-(5-hydroxy-4-oxo-1,4-dihydropyridin-2-yl)-5-oxo-4,5-dihydro-1H-1,2,4-triazol-1-yl]sulfonyl}carbamoyl)-2-oxoazetidin-3-yl]amino}-2-oxoethylidene]amino}oxy)-2-methylpropanoic acid] | – | – | – | – | – | – | 250 (≈ 350 µM) | – | – |
